From patent US20100184852A1, “ORGANIC COMPOUNDS FOR TREATMENT OF DISORDERS CONNECTED TO IMPAIRED NEUROTRANSMISSION” (priority 2006, published 2010)

What was measured:
[1] = target: T1, human serotonin re-uptake transporter (hSERT) (Homo sapiens, UniProt P31645); assay: Serotonin uptake inhibition in HEK-293 cells expressing hSERT; assay type: cell-based; details: transfected HEK-293 cells; 20 nM (3H) serotonin, 30 minutes; average +/− s.e.m.; read-out: IC50 for tritiated serotonin uptake
T1 construct: host or cells: HEK-293
T1 sequence (P31645 whole entry): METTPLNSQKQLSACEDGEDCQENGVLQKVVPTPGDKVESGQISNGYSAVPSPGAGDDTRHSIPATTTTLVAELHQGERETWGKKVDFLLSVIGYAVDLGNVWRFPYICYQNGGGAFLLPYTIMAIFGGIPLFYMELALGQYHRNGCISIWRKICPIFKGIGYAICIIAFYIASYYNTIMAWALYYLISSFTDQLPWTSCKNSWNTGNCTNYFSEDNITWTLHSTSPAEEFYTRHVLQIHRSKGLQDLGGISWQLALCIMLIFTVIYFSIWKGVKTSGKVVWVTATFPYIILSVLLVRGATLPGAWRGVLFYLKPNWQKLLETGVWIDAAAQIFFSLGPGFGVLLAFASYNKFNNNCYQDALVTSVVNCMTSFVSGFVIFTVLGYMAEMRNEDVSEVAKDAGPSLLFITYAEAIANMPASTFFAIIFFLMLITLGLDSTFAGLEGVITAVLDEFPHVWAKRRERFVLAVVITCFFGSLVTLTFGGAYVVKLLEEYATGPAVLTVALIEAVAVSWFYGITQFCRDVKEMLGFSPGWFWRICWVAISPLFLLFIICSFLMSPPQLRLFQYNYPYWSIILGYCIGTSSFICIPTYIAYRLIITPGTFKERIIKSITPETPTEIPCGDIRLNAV
Experimental: HEK-293 cells stably expressing the human serotonin re-uptake transporter (hSERT) were obtained from R. Blakely, Vanderbilt University, USA. The cells were routinely grown in Dulbeco's Modified Eagles Medium, purchased from Bioconcept, Allschwil, Switzerland containing 10% fetal calf serum, penicillin, streptomycin, L-glutamine and the antibiotic G418 and passaged by trypsinisation. One day prior to the assay cells were seeded in the above mentioned medium. Immediately prior to the assay the medium was replaced by Krebs Ringers bicarbonate buffer, purchased from Sigma Chemicals Ltd., supplemented with 35 μM pargyline, 2.2 mM CaCl2, 1 mM ascorbic acid and 5 mM N-2-hydroxyethylpiperazine-N′-2-ethanesulfonic acid (buffer called “Hepes”). Serotonin uptake into the cells was determined by addition of radio-labeled (3H) serotonin (Amersham Biosciences GE Healthcare, Slough, UK) to a concentration of 20 nM, and incubation for 30 minutes at room temperature. Following removal of unincorporated label by gentle washing three times with the above buffer, incorporated serotonin was quantified by liquid scintillation counting.
The effect of the compounds of formula I on the serotonin uptake was determined by its inclusion in the assay at a range of concentrations between 0.03 and 100 μM for 10 minutes prior to and during the addition of (3H) serotonin/citalopram. Serotonin uptake via the transporter was inhibited by ligustilide, 3-butylphthalide, senkyunolide A, senkyunolide C, senkyunolide B, and cnidilide, respectively, in a dose dependent manner, with IC50 values as shown in Table 2.

[2] = target: T2, Monoamine oxidase A (MAO-A) (Homo sapiens, UniProt P21397); assay: Monoaminooxidase A inhibition (H2O2/vanillic acid/HRP readout); assay type: biochemical
T2 sequence (P21397 1-527): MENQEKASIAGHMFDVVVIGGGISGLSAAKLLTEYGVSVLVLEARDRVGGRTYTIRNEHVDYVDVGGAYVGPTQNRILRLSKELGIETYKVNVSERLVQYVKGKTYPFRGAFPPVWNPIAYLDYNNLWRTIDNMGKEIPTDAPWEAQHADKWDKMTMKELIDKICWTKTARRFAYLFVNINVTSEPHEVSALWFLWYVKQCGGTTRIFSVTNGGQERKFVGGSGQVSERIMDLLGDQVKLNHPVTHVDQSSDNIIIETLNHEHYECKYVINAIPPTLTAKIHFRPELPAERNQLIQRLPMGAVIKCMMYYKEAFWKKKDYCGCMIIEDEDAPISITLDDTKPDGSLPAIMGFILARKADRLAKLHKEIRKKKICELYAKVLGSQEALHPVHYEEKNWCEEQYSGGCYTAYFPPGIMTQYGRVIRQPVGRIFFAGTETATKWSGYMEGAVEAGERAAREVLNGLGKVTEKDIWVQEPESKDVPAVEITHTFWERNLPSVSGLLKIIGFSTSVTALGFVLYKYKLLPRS
Experimental: (§1) The organic amines p-tyramine or benzylamine were used as substrates for the Monoamine oxidase A (MAO-A) and B (MAO-B) enzymes respectively. The H2O2 produced by this reaction was quantified by reaction with vanillic acid, catalysed by horse radish peroxidase (HRP).
(§2) The reactions were carried out in polystyrene microtitre plates. The MAO enzymes (final concentration 2 U/ml) were mixed with either p-tyramine (Sigma, final concentration 0.5 mM) or benzylamine (Sigma, final concentration 0.5 mM) as appropriate and the chromogenic solution (containing vanillic acid (Fluka), 4-aminoantipyrine (Fluka) and horse radish peroxidase (Sigma), final concentrations 0.25 mM, 0.125 mM and 1 U/ml respectively) in 0.2 M potassium phosphate buffer pH 7.6. The reactions were followed in a microtitre plate absorbance reader eg Spectramax M5 (Molecular Devices Corporation). Absorbance readings at 495 nm were taken every 15 seconds for 40 minutes and the initial reaction velocities calculated by linear regression using SOFTmaxPro (Molecular Devices Corporation).
(§3) The effect of ligustilide, 3-butylphthalide, senkyunolide C and cnidilide on the monoamine oxidase enzymes was determined by their inclusion in the assay at a range of concentrations between 0.03 and 100 μM for 10 minutes prior to and during the incubation with substrate. To determine the effect of the compounds on the HRP catalyzed portion of the reaction, the MAO enzyme was replaced by H2O2 (Molecular Probes, final concentration 0.2 mM). The reactions containing MAO-A and MAO-B were both inhibited by […] according to formula I in a dose dependent manner, whilst the control reaction, was unaffected. The measured IC50 values for inhibition of monoamine oxidase activity by ligustilide, 3-butylphthalide, senkyunolide C and enidilide, respectively, are shown in Table 3.

[3] = target: T3, Monoamine oxidase B (MAO-B) (Homo sapiens, UniProt P27338); assay: Monoaminooxidase B inhibition (H2O2/vanillic acid/HRP readout); assay type: biochemical
T3 sequence (P27338 1-520): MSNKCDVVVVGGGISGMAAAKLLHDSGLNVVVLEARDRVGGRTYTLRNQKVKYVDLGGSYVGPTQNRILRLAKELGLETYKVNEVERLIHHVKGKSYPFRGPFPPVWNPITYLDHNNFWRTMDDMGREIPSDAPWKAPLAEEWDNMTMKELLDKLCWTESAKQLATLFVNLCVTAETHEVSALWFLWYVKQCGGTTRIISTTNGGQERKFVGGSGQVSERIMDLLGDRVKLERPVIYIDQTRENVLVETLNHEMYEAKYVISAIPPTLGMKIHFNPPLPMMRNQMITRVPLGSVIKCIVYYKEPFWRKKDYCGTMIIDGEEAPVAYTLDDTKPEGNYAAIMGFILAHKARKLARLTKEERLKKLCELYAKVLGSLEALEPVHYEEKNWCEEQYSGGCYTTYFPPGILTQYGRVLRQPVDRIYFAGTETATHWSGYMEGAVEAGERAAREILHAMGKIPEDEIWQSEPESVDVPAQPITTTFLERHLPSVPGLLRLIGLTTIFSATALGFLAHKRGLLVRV
Experimental: as §1, §2, §3

Row | Compound | IC50 [1] [µM] | IC50 [2] [µM] | IC50 [3] [µM]
1 | CCCC[C@@H]1OC(=O)c2ccccc21 (stereo in doubt) [3-n-butylphthalide, 3-n-Butylphthalide] | 35.2 | 8.1 | 56.1
2 | CCC/C=C1\OC(=O)C2=C1CCC=C2 [Ligustilide] | 20.4 | 15.7 | 24.9
